Source: PubChem BioAssay (NCI)
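Results reflect a 48-hour exposure of cells in 96-well plates to compound at five concentrations. The concentration for 50% growth inhibition is given as GI50. Definition used: TGI = concentration required for complete inhibition of growth.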

Legend:
Assay in all cases: NCI-60 cell line screen, 48 h
CAKI-1 renal = system: CAKI-1 renal
HCT-116 colon = system: HCT-116 colon
HCT-15 colon = system: HCT-15 colon
LXFL 529 NSCLC = system: LXFL 529 NSCLC
NCI-H23 lung = system: NCI-H23 lung
OVCAR-4 ovarian = system: OVCAR-4 ovarian
SF-295 CNS = system: SF-295 CNS
XF 498 CNS = system: XF 498 CNS
DU-145 prostate = system: DU-145 prostate
NCI/ADR-RES ovarian = system: NCI/ADR-RES ovarian

Compound	TGI (CAKI-1 renal) [µM]	TGI (HCT-116 colon) [µM]	TGI (HCT-15 colon) [µM]	TGI (LXFL 529 NSCLC) [µM]	TGI (NCI-H23 lung) [µM]	TGI (OVCAR-4 ovarian) [µM]	TGI (SF-295 CNS) [µM]	TGI (XF 498 CNS) [µM]	GI50 (CAKI-1 renal) [µM]	GI50 (DU-145 prostate) [µM]	TGI (DU-145 prostate) [µM]	GI50 (HCT-116 colon) [µM]	GI50 (HCT-15 colon) [µM]	GI50 (NCI-H23 lung) [µM]	GI50 (NCI/ADR-RES ovarian) [µM]	TGI (NCI/ADR-RES ovarian) [µM]	GI50 (OVCAR-4 ovarian) [µM]	GI50 (SF-295 CNS) [µM]
CCOC(=O)CC(NC(=O)c1ccc(N=NN(C)C)cc1)C(=O)OCC (stereo not given)	> 100	> 100	> 100	> 100	> 100	> 100	> 100											
CCCCCCCCCCCCCCCCCC(=O)NCC(COP(=O)(O)O)OCC (stereo not given)	> 100	> 100		> 100	30.1	> 100	37.5	> 100										
COC(=O)C(=O)C(C(=O)C(=O)Nc1cc(Cl)c(Cl)cc1Cl)c1nc2ccc([N+](=O)[O-])cc2[nH]c1=O (stereo not given)	> 100	> 100	> 100	> 100	> 100	> 100	> 100	> 100										
CC(C)N1C(C)[C@@H](c2ccccc2)O[P@]1(=O)CC1=CCCCC1 (stereo not given in full)		> 100	> 100	> 100	> 100		> 100	> 100										
COc1cc(C(C#N)NNc2nc(C)cc(=O)[nH]2)cc(OC)c1OC (stereo not given)	> 100	> 100	> 100	> 100	> 100	> 100	> 100											
CC(C)(C)Sc1nnc(SC(C)(C)C)c2c(=O)[nH]nc(SC(C)(C)C)c12	16.3	15.9	16.4	23.1	22.9	10.5	23.8	28.7										
Cc1noc(/N=C2\C=C(Nc3onc(C)c3C)C(=O)c3ccccc32)c1C	> 100	> 100	> 100	> 100	> 100	> 100	> 100	> 100										
c1ccc(-c2nnc3nn4c(-c5ccccc5)cnnc4c3c2-c2ccccc2)cc1	45.6	> 100	> 100	> 100	> 100	42.5	> 100	57.1										
O=S1(=O)c2ccccc2N=C(c2ccccc2Cl)CC1c1ccc(F)cc1 (stereo not given)	34.3	22.9	35.6	31.6	32.2	32.8	34.4	29										
Cc1ccc2nc(NC(=O)C(=O)CC(=O)c3cccc4ccccc34)sc2c1	78		> 100	> 100	> 100	32.1	48.4	> 100										
CCCCNC1=C(C(=O)OCC)/C(=N/NC(=O)c2ccccc2O)CO1	> 100	> 100		> 100	> 100	> 100	> 100	> 100										
O=C1CCC(=O)c2sccc2N1	> 100	> 100	> 100	> 100	> 100	> 100	> 100	> 100										
O=CCCCC(Sc1ccccc1)Sc1ccccc1	> 100	28.4	33.2	25.6	27.3	45.6	40.7	42.6										
COC(=O)C(C(=O)C(N)=O)c1csc(-n2nc(-c3ccccc3)cc2-c2ccccc2)n1 (stereo not given)	15.5	> 31.6	> 31.6	> 31.6	> 100	> 31.6	> 100	> 31.6										
COc1ccc2c(c1)c1c3n2CCNN=C3CCC1	> 100	> 100	> 100	> 100	> 100	> 100	> 100	> 100										
O=C(/C=C/C1C(=O)NC(=O)NC1=O)CC(=O)C(=O)Nc1cc(Cl)c(Cl)cc1Cl	> 100	> 100	> 100	> 100	> 100	> 100	> 100	> 100										
O=c1[nH]cc(C(F)(C(F)(F)F)C(F)(F)F)c(=O)[nH]1	> 100	> 100	> 100	> 100	> 100	> 100	> 100	> 100										
CC(C)[Si](OCC1CC(C#N)OC(C)(C)O1)(C(C)C)C(C)C (stereo not given)	69.5	30.1	79		65.8	> 100	29.3	37										
CC(=O)Nc1ccc(-c2nnc(SCC(=O)Nc3ccc(Cl)cc3)o2)cc1	33.7	20.2	40	22.5	18.2	55.9	25.2											
CC1=CC(=O)NP(=O)(C23CC4CC(CC(C4)C2)C3)N1 (stereo not given)	> 100	> 100	> 100	> 100	> 100	> 100	> 100	> 100										
H-QIYKKYRTWYRKAWKVLGKV-NH2	19	77.1	17		30.1	50.5	23.9		3.89	3.54	11.8	10.8	2.92	3.96	4.81	> 100	9.03	4.72
NNC(=O)C(O)C(O)C(=O)NN (stereo not given)	> 100	> 100	> 100		> 100	> 100	> 100				> 100					> 100		
COc1ccc2c([nH]c3c(O)c(-c4c(C)cc5c([nH]c6c(CC=C(C)C)c(OC)ccc65)c4O)c(C)cc32)c1CC=C(C)C	> 100	> 100	> 100	> 100	> 100	> 100	> 100											
C/C(=N\NS(=O)(=O)c1ccc([N+](=O)[O-])cc1)c1ccc[n+]([O-])n1	6.99	3.9	24.9	6.7	3.6	5.69	7.05	7.69										
